Measured values from ChEMBL document CHEMBL6153110, “Peptide Double-Stapling and Arginine N-Glycosylation Triggered the Development of Therapeutic Antimicrobial Peptides Capable of Killing Drug-Resistant Bacteria in Mice” (J Med Chem, 2025).
In brackets after ≈: the same amount, converted by molar mass. Starred links: 1 amine or outer side, 2 acyl side, 3 side chain; linkers in the order of their positions; H or OH if unused. Positions of bridges follow the written chain, without caps; N, C: chain ends. Non-standard residues stand in square brackets, D forms with d. Residues, ends and D or L forms follow the SMILES beside them. X1 = N=C(NCCC[C@H](N[*:1])C(=O)[*:2])N[C@@H]1O[C@H](CO)[C@@H](O[C@H]2O[C@H](CO)[C@@H](O[C@H]3O[C@H](CO)[C@@H](O)[C@H](O)[C@H]3O)[C@H](O)[C@H]2O)[C@H](O)[C@H]1O; Arg(Nω-βLac) = N=C(NCCC[C@H](N)C(=O)O)N[C@@H]1O[C@H](CO)[C@@H](O[C@@H]2O[C@H](CO)[C@H](O)[C@H](O)[C@H]2O)[C@H](O)[C@H]1O; X2 = CC(=O)N[C@@H]1[C@@H](O)[C@H](O)[C@@H](CO)O[C@H]1NC(=N)NCCC[C@H](N[*:1])C(=O)[*:2]; S5 = C=CCCC[C@](C)(N)C(=O)O

What was measured:
Pseudomonas aeruginosa = experiment: Antimicrobial activity against Pseudomonas aeruginosa ATCC 27853 assessed as growth inhibition measured after 8 hrs incubation by standard broth dilution assay; format: functional
Staphylococcus aureus = experiment: Antimicrobial activity against methicillin-resistant Staphylococcus aureus ATCC 43300 assessed as growth inhibition measured after 8 hrs incubation by standard broth dilution assay; format: functional
[1] = Hemolytic activity in BALB/c mouse red blood cells assessed as hemolysis incubated for 1 hrs; format: toxicity, cell-based, Erythrocyte; conditions: read-out: HD50
Klebsiella pneumoniae = experiment: Antimicrobial activity against Klebsiella pneumoniae ATCC 13883 assessed as growth inhibition measured after 8 hrs incubation by standard broth dilution assay; format: functional
Streptococcus pneumoniae = experiment: Antimicrobial activity against Streptococcus pneumoniae ATCC 49619 assessed as growth inhibition measured after 8 hrs incubation by standard broth dilution assay; format: functional

| Structure (SMILES) | MIC (Pseudomonas aeruginosa) [µg/mL] | MIC (Staphylococcus aureus) [µg/mL] | HC50 at 1 h [1] [µg/mL] | MIC (Klebsiella pneumoniae) [µg/mL] | MIC (Streptococcus pneumoniae) [µg/mL] |
| --- | --- | --- | --- | --- | --- |
| CC(=O)N[C@@H](CC(C)C)C(=O)N[C@@H](CCCCN)C(=O)N[C@@H](CCCNC(=N)N)C(=O)N[C@H](C(=O)N[C@@H](Cc1c[nH]c2ccccc12)C(=O)N[C@@H](CCCCN)C(=O)N[C@@H](CCCNC(=N)N)C(=O)N[C@H](C(=O)N[C@@H](Cc1ccccc1)C(=O)N[C@@H](CCCCN)C(=O)N[C@@H](CC(C)C)C(=O)N[C@@H](CCCCN)C(=O)N[C@@H](CCCCN)C(=O)N[C@@]1(C)CCC/C=C\CCC[C@@](C)(C(=O)N[C@@H](CC(C)C)C(=O)N[C@@H](CCCCN)C(=O)N[C@@H](CCCCN)C(=O)N2CCC[C@H]2C(=O)N[C@H](C(=O)N[C@@H](CCCNC(=N)N)C(N)=O)C(C)C)NC(=O)[C@H](CCCNC(=N)N)NC(=O)[C@H](Cc2c[nH]c3ccccc23)NC(=O)[C@H](Cc2ccc(O)cc2)NC1=O)C(C)C)C(C)C (Ac-LKRVWKRVFKLKK[S5]YWR[S5]LKKPVR-NH2; staple (Z) 14-18) | 5 (≈ 1.54 µM) | 10.1 (≈ 3.11 µM) | 70.1 | 38 (≈ 11.7 µM) | 4.7 (≈ 1.45 µM) |
| CC(=O)N[C@@H](CC(C)C)C(=O)N[C@@H](CCCCN)C(=O)N[C@@H](CCCNC(=N)N)C(=O)N[C@H](C(=O)N[C@@H](Cc1c[nH]c2ccccc12)C(=O)N[C@@H](CCCCN)C(=O)N[C@@H](CCCNC(=N)N)C(=O)N[C@H](C(=O)N[C@@H](Cc1ccccc1)C(=O)N[C@@H](CCCCN)C(=O)N[C@@H](CC(C)C)C(=O)N[C@@H](CC(C)C)C(=O)N[C@@H](CCCCN)C(=O)N[C@@H](CCCNC(=N)N)C(=O)N[C@@H](Cc1ccc(O)cc1)C(=O)N[C@@H](Cc1c[nH]c2ccccc12)C(=O)N[C@@H](CCCNC(=N)N)C(=O)N[C@@H](CCC(N)=O)C(=O)N[C@@H](CC(C)C)C(=O)N[C@@H](CCCCN)C(=O)N[C@@H](CCCCN)C(=O)N1CCC[C@H]1C(=O)N[C@H](C(=O)N[C@@H](CCCNC(=N)N[C@@H]1O[C@H](CO)[C@@H](O[C@@H]2O[C@H](CO)[C@H](O)[C@H](O)[C@H]2O)[C@H](O)[C@H]1O)C(N)=O)C(C)C)C(C)C)C(C)C (Ac-LKRVWKRVFKLLKRYWRQLKKPV[Arg(Nω-βLac)]-NH2) | 5 (≈ 1.39 µM) | 4.9 (≈ 1.36 µM) | 39.7 | 38 (≈ 10.6 µM) | 4.7 (≈ 1.31 µM) |
| CC(=O)N[C@@H](CC(C)C)C(=O)N[C@@H](CCCCN)C(=O)N[C@@H](CCCNC(=N)N)C(=O)N[C@H](C(=O)N[C@@H](Cc1c[nH]c2ccccc12)C(=O)N[C@@H](CCCCN)C(=O)N[C@@H](CCCNC(=N)N)C(=O)N[C@H](C(=O)N[C@@H](Cc1ccccc1)C(=O)N[C@@H](CCCCN)C(=O)N[C@@H](CC(C)C)C(=O)N[C@@H](CC(C)C)C(=O)N[C@@H](CCCCN)C(=O)N[C@@H](CCCNC(=N)N)C(=O)N[C@@H](Cc1ccc(O)cc1)C(=O)N[C@@H](Cc1c[nH]c2ccccc12)C(=O)N[C@@H](CCCNC(=N)N)C(=O)N[C@@H](CCC(N)=O)C(=O)N[C@@H](CC(C)C)C(=O)N[C@@H](CCCCN)C(=O)N[C@@H](CCCCN)C(=O)N1CCC[C@H]1C(=O)N[C@H](C(=O)N[C@@H](CCCNC(=N)N[C@@H]1O[C@H](CO)[C@@H](O[C@H]2O[C@H](CO)[C@@H](O[C@H]3O[C@H](CO)[C@@H](O)[C@H](O)[C@H]3O)[C@H](O)[C@H]2O)[C@H](O)[C@H]1O)C(N)=O)C(C)C)C(C)C)C(C)C (Ac-LKRVWKRVFKLLKRYWRQLKKPV[X1]-NH2) | 2.6 (≈ 0.693 µM) | 4.9 (≈ 1.31 µM) | 45.7 | 38 (≈ 10.1 µM) | 4.7 (≈ 1.25 µM) |
| CC(=O)N[C@@H]1[C@@H](O)[C@H](O)[C@@H](CO)O[C@H]1NC(=N)NCCC[C@H](NC(=O)[C@@H](NC(=O)[C@@H]1CCCN1C(=O)[C@H](CCCCN)NC(=O)[C@H](CCCCN)NC(=O)[C@H](CC(C)C)NC(=O)[C@H](CCC(N)=O)NC(=O)[C@H](CCCNC(=N)N)NC(=O)[C@H](Cc1c[nH]c2ccccc12)NC(=O)[C@H](Cc1ccc(O)cc1)NC(=O)[C@H](CCCNC(=N)N)NC(=O)[C@H](CCCCN)NC(=O)[C@H](CC(C)C)NC(=O)[C@H](CC(C)C)NC(=O)[C@H](CCCCN)NC(=O)[C@H](Cc1ccccc1)NC(=O)[C@@H](NC(=O)[C@H](CCCNC(=N)N)NC(=O)[C@H](CCCCN)NC(=O)[C@H](Cc1c[nH]c2ccccc12)NC(=O)[C@@H](NC(=O)[C@H](CCCNC(=N)N)NC(=O)[C@H](CCCCN)NC(=O)[C@H](CC(C)C)NC(C)=O)C(C)C)C(C)C)C(C)C)C(N)=O (Ac-LKRVWKRVFKLLKRYWRQLKKPV[X2]-NH2) | 5 (≈ 1.44 µM) | 4.9 (≈ 1.41 µM) | 35.8 | 38 (≈ 10.9 µM) | 4.7 (≈ 1.35 µM) |
| CC(=O)N[C@@H](CC(C)C)C(=O)N[C@@H](CCCCN)C(=O)N[C@@H](CCCNC(=N)N)C(=O)N[C@H](C(=O)N[C@@H](Cc1c[nH]c2ccccc12)C(=O)N[C@@H](CCCCN)C(=O)N[C@@H](CCCNC(=N)N)C(=O)N[C@H](C(=O)N[C@@H](Cc1ccccc1)C(=O)N[C@@H](CCCCN)C(=O)N[C@@H](CC(C)C)C(=O)N[C@@H](CC(C)C)C(=O)N[C@@H](CCCCN)C(=O)N[C@@]1(C)CCC/C=C\CCC[C@@](C)(C(=O)N[C@@H](CC(C)C)C(=O)N[C@@H](CCCCN)C(=O)N[C@@H](CCCCN)C(=O)N2CCC[C@H]2C(=O)N[C@H](C(=O)N[C@@H](CCCNC(=N)N)C(N)=O)C(C)C)NC(=O)[C@H](CCCNC(=N)N)NC(=O)[C@H](Cc2c[nH]c3ccccc23)NC(=O)[C@H](CCCCN)NC1=O)C(C)C)C(C)C (Ac-LKRVWKRVFKLLK[S5]KWR[S5]LKKPVR-NH2; staple (Z) 14-18) | 5 (≈ 1.56 µM) | 10.1 (≈ 3.16 µM) | 53.6 | 38 (≈ 11.9 µM) | 2.4 (≈ 0.75 µM) |
| CC(=O)N[C@@H](CC(C)C)C(=O)N[C@@H](CCCCN)C(=O)N[C@@H](CCCNC(=N)N)C(=O)N[C@H](C(=O)N[C@@H](Cc1c[nH]c2ccccc12)C(=O)N[C@@H](CCCCN)C(=O)N[C@@H](CCCNC(=N)N)C(=O)N[C@H](C(=O)N[C@@H](Cc1ccccc1)C(=O)N[C@@H](CCCCN)C(=O)N[C@@H](CC(C)C)C(=O)N[C@@H](CC(C)C)C(=O)N[C@@H](CCCCN)C(=O)N[C@@]1(C)CCC/C=C\CCC[C@@](C)(C(=O)N[C@@H](CC(C)C)C(=O)N[C@@H](CCCCN)C(=O)N[C@@H](CCCCN)C(=O)N2CCC[C@H]2C(=O)N[C@H](C(=O)N[C@@H](CCCNC(=N)N)C(N)=O)C(C)C)NC(=O)[C@H](CCCNC(=N)N)NC(=O)[C@H](CCCCN)NC(=O)[C@H](Cc2ccc(O)cc2)NC1=O)C(C)C)C(C)C (Ac-LKRVWKRVFKLLK[S5]YKR[S5]LKKPVR-NH2; staple (Z) 14-18) | 5 (≈ 1.57 µM) | 4.9 (≈ 1.54 µM) | 21 | 38 (≈ 12 µM) | 4.7 (≈ 1.48 µM) |
| CC(=O)N[C@@H](CC(C)C)C(=O)N[C@@H](CCCCN)C(=O)N[C@@H](CCCNC(=N)N)C(=O)N[C@H](C(=O)N[C@@H](Cc1c[nH]c2ccccc12)C(=O)N[C@@H](CCCCN)C(=O)N[C@@H](CCCNC(=N)N)C(=O)N[C@H](C(=O)N[C@@H](Cc1ccccc1)C(=O)N[C@@H](CCCCN)C(=O)N[C@@H](CC(C)C)C(=O)N[C@@H](CC(C)C)C(=O)N[C@@H](CCCCN)C(=O)N[C@@]1(C)CCC/C=C\CCC[C@@](C)(C(=O)N[C@@H](CCCCN)C(=O)N[C@@H](CCCCN)C(=O)N[C@@H](CCCCN)C(=O)N2CCC[C@H]2C(=O)N[C@H](C(=O)N[C@@H](CCCNC(=N)N)C(N)=O)C(C)C)NC(=O)[C@H](CCCNC(=N)N)NC(=O)[C@H](Cc2c[nH]c3ccccc23)NC(=O)[C@H](Cc2ccc(O)cc2)NC1=O)C(C)C)C(C)C (Ac-LKRVWKRVFKLLK[S5]YWR[S5]KKKPVR-NH2; staple (Z) 14-18) | 5 (≈ 1.54 µM) | 10.1 (≈ 3.11 µM) | 10.8 | 19 (≈ 5.85 µM) | 4.7 (≈ 1.45 µM) |
| CC(=O)N[C@@H](CC(C)C)C(=O)N[C@@H](CCCCN)C(=O)N[C@@H](CCCNC(=N)N)C(=O)N[C@H](C(=O)N[C@@H](Cc1c[nH]c2ccccc12)C(=O)N[C@@H](CCCCN)C(=O)N[C@@H](CCCNC(=N)N)C(=O)N[C@H](C(=O)N[C@@H](Cc1ccccc1)C(=O)N[C@@H](CCCCN)C(=O)N[C@@H](CC(C)C)C(=O)N[C@@H](CC(C)C)C(=O)N[C@@H](CCCCN)C(=O)N[C@@]1(C)CCC/C=C\CCC[C@@](C)(C(=O)N[C@@H](CC(C)C)C(=O)N[C@@H](CCCCN)C(=O)N[C@@H](CCCCN)C(=O)N[C@@H](CCCCN)C(=O)N[C@H](C(=O)N[C@@H](CCCNC(=N)N)C(N)=O)C(C)C)NC(=O)[C@H](CCCNC(=N)N)NC(=O)[C@H](Cc2c[nH]c3ccccc23)NC(=O)[C@H](Cc2ccc(O)cc2)NC1=O)C(C)C)C(C)C (Ac-LKRVWKRVFKLLK[S5]YWR[S5]LKKKVR-NH2; staple (Z) 14-18) | 5 (≈ 1.53 µM) | 4.9 (≈ 1.5 µM) | 13.1 | 10.1 (≈ 3.09 µM) | 4.7 (≈ 1.44 µM) |
| CC(=O)N[C@@H](CC(C)C)C(=O)N[C@@H](CCCCN)C(=O)N[C@@H](CCCNC(=N)N)C(=O)N[C@H](C(=O)N[C@@H](Cc1c[nH]c2ccccc12)C(=O)N[C@@H](CCCCN)C(=O)N[C@@H](CCCNC(=N)N)C(=O)N[C@H](C(=O)N[C@@H](Cc1ccccc1)C(=O)N[C@@H](CCCCN)C(=O)N[C@@H](CC(C)C)C(=O)N[C@@H](CC(C)C)C(=O)N[C@@H](CCCCN)C(=O)N[C@@]1(C)CCC/C=C\CCC[C@@](C)(C(=O)N[C@@H](CC(C)C)C(=O)N[C@@H](CCCCN)C(=O)N[C@@H](CCCCN)C(=O)N2CCC[C@H]2C(=O)N[C@@H](CCCCN)C(=O)N[C@@H](CCCNC(=N)N)C(N)=O)NC(=O)[C@H](CCCNC(=N)N)NC(=O)[C@H](Cc2c[nH]c3ccccc23)NC(=O)[C@H](Cc2ccc(O)cc2)NC1=O)C(C)C)C(C)C (Ac-LKRVWKRVFKLLK[S5]YWR[S5]LKKPKR-NH2; staple (Z) 14-18) | 5 (≈ 1.53 µM) | 4.9 (≈ 1.5 µM) | 8.9 | 19.2 (≈ 5.89 µM) | 4.7 (≈ 1.44 µM) |
